Biological target: T1, full length active recombinant SYK enzyme (Homo sapiens, UniProt P43405)
T1 construct: full length active recombinant SYK enzyme (Millipore, Calif.); purchased Millipore
Test: Inhibition of Syk tyrosine phosphorylation activity (LANCE TR-FRET kinase assay)
Assay type: biochemical
Excerpt: This example illustrates methods for evaluating the compounds of the invention, along with results obtained for such assays. The in vitro and in vivo human Syk activities of the inventive compounds can be determined by various procedures known in the art, such as a test for their ability to inhibit the activity of human plasma Syk. […] The IC50 value is the concentration (in nM) of the compound required to provide 50% inhibition of human Syk proteolytic activity.
Potency of candidate molecules for inhibiting Syk tyrosine phosphorylation activity is assessed by measuring the ability of a test compound to inhibit Syk-mediated tyrosine phosphorylation of a Syk-specific substrate.
SYK tyrosine phosphorylation activity is measured using the LANCE™ Technology developed by Perkin Elmer Life and Analytical Sciences (Boston, Mass.). LANCE™ refers to homogeneous time resolved fluorometry applications using techniques such as time-resolved fluorescence resonance energy transfer assay (TR-FRET) (see generally for procedures in Perkin Elmer Application Note—How to Optimize a Tyrosine Kinase Assay Using Time Resolved Fluorescence-Based LANCE Detection, wwww.perkinelmer.com/lifesciences). The assay principle involves detection of a phosphorylated substrate using energy transfer from a phosphospecific europium-labeled antibody to streptavidin-allophycocyanin as an acceptor.
To test the ability of candidate molecules to inhibit SYK tyrosine phosphorylation activity, molecules are reconstituted in 30% DMSO and serially diluted 1:3 with the final dilution containing DMSO in the absence of the candidate molecule. The final DMSO concentration in the assay is 3%. Kinase assays are performed as a two part reaction. The first reaction is a kinase reaction and which comprises of a candidate molecule, full length active recombinant SYK enzyme (Millipore, Calif.) and biotin-labeled SYK-specific substrate biotin-[…]-OH. The second reaction involves termination of the kinase reaction and the simultaneous addition of the detection reagents-europium-labeled anti-phosphotyrosine reagent (Eu-W1024-PY100, Perkin Elmer, Boston, Mass.) and Streptavidin-Allophycocyanin detection reagent (SA-APC, Prozyme, Calif.). The kinase reaction is performed in a black U-bottom 96-well microtitre plate. The final reaction volume is 50 μL and contains a final concentration of 1 nM active SYK enzyme, 550 nM SYK-substrate, and 100 μM ATP diluted in a buffer containing 50 mM Tris pH 7.5, 5 mM MgCl2, and 1 mM DTT. The reaction is allowed to proceed for 1 hour at room temperature. The quench buffer contains 100 mM Tris pH 7.5, 300 mM NaCl2, 20 mM EDTA, 0.02% Brij35, and 0.5% BSA. The detection reagents are added to the reaction mixture at the following dilutions-1:500 for Eu-W1024-PY100 and 1:250 for SA-APC. The kinase reaction is terminated by the addition of 50 μL quench buffer containing the detection reagents. The detection is allowed to proceed for 1 hr at room temperature. Detection of the phosphorlated substrate in the absence and presence of inhibitors is measured in the TR-FRET instrument, Analyst HT (Molecular Probes, Sunnyvale, Calif.) and the condition for measurements are set up using CriterionHost Release 2.0 (Molecular Probes, Sunnyvale, Calif.). The settings used are a follows: excitation 360 nm, emission 665-7.5 nm, beam splitter 350 nm 50/50, flash 100 pulses, delay 60 us, integration 400 us, z-height 2 mm. Inhibition of SYK-tyrosine kinase activity is calculated as the maximum response observed in the presence of inhibitor, compared to that in the absence of inhibitor. IC50s were derived by non-linear regression analysis.

SMILES	IC50
COc1nc(N[C@@H](C(N)=O)C(C)C)nc(Nc2cc(C)cc(C)c2)c1C(N)=O [Example 1, (R)-2-(1-amino-3-methyl-1-oxobutan-2-ylamino)-4-(3,5-dimethylphenylamino)-6-methoxypyrimidine-5-carboxamide]	10 to 100 nM
Cc1cc(C)cc(Nc2nc(N[C@@H](C(N)=O)C(C)C)[nH]c(=O)c2C(N)=O)c1 [Example 2, (R)-2-(1-amino-3-methyl-1-oxobutan-2-ylamino)-4-(3,5-dimethylphenylamino)-6-oxo-1,6-dihydropyrimidine-5-carboxamide]	1 to 10 nM
COc1nc(N[C@@H]2CCCC[C@@H]2N)nc(Nc2cccc(-n3nccn3)c2)c1C(N)=O [Example 3, 2-((1R,2S)-2-aminocyclohexylamino)-4-(3-(2H-1,2,3-triazol-2-yl)phenylamino)-6-methoxypyrimidine-5-carboxamide]	10 to 100 nM
CCOc1nc(N[C@@H](C(N)=O)C(C)C)nc(Nc2cc(C)cc(C)c2)c1C(N)=O [Example 4, (R)-2-(1-amino-3-methyl-1-oxobutan-2-ylamino)-4-(3,5-dimethylphenylamino)-6-ethoxypyrimidine-5-carboxamide]	100 to 1000 nM
NC(=O)c1c(Nc2cccc(-n3nccn3)c2)nc(N[C@@H]2CCCC[C@@H]2N)[nH]c1=O [Example 5]	1 to 10 nM
CC(C)[C@@H](Nc1nc(Nc2cccc(-n3nccn3)c2)c(C(N)=O)c(=O)[nH]1)C(N)=O [Example 6, (R)-4-(3-(2H-1,2,3-triazol-2-yl)phenylamino)-2-(1-amino-3-methyl-1-oxobutan-2-ylamino)-6-oxo-1,6-dihydropyrimidine-5-carboxamide]	1 to 10 nM
CC(C)C[C@@H](Nc1nc(Nc2cccc(-n3nccn3)c2)c(C(N)=O)c(=O)[nH]1)C(N)=O [Example 7, (R)-4-(3-(2H-1,2,3-triazol-2-yl)phenylamino)-2-(1-amino-4-methyl-1-oxopentan-2-ylamino)-6-oxo-1,6-dihydropyrimidine-5-carboxamide]	10 to 100 nM
CC[C@@H](Nc1nc(Nc2cccc(-n3nccn3)c2)c(C(N)=O)c(=O)[nH]1)C(N)=O [Example 8, (R)-4-(3-(2H-1,2,3-triazol-2-yl)phenylamino)-2-(1-amino-1-oxobutan-2-ylamino)-6-oxo-1,6-dihydropyrimidine-5-carboxamide]	10 to 100 nM
Cc1cccc(Nc2nc(N[C@H](CC(C)C)C(N)=O)[nH]c(=O)c2C(N)=O)c1 [Example 9, (R)-2-(1-amino-4-methyl-1-oxopentan-2-ylamino)-6-oxo-4-(m-tolylamino)-1,6-dihydropyrimidine-5-carboxamide]	1 to 10 nM
Cc1cccc(Nc2nc(N[C@@H](C(N)=O)C(C)C)[nH]c(=O)c2C(N)=O)c1 [Example 10, (R)-2-(1-amino-3-methyl-1-oxobutan-2-ylamino)-6-oxo-4-(m-tolylamino)-1,6-dihydropyrimidine-5-carboxamide]	1 to 10 nM
CC[C@@H](Nc1nc(Nc2cccc(C)c2)c(C(N)=O)c(=O)[nH]1)C(N)=O [Example 11, (R)-2-(1-amino-1-oxobutan-2-ylamino)-6-oxo-4-(m-tolylamino)-1,6-dihydropyrimidine-5-carboxamide]	1 to 10 nM
Cc1cc(C)cc(Nc2nc(N[C@@H](CN)C(C)C)[nH]c(=O)c2C(N)=O)c1 [Example 12, (R)-2-(1-amino-3-methylbutan-2-ylamino)-4-(3,5-dimethylphenylamino)-6-oxo-1,6-dihydropyrimidine-5-carboxamide]	1 to 10 nM
CC(C)C[C@@H](Nc1nc(Nc2ccc3ncccc3c2)c(C(N)=O)c(=O)[nH]1)C(N)=O [Example 13, (R)-2-(1-amino-4-methyl-1-oxopentan-2-ylamino)-6-oxo-4-(quinolin-6-ylamino)-1,6-dihydropyrimidine-5-carboxamide]	< 1 nM
CNCCNc1nc(Nc2cccc(C)c2)c(C(N)=O)c(=O)[nH]1 [Example 14]	10 to 100 nM
COc1nc(N[C@@H](C(N)=O)C(C)C)nc(Nc2ccc3ncccc3c2)c1C(N)=O [Example 15, (R)-2-(1-amino-3-methyl-1-oxobutan-2-ylamino)-4-methoxy-6-(quinolin-6-ylamino)pyrimidine-5-carboxamide]	10 to 100 nM
CC[C@@H](Nc1nc(Nc2ccc3ncccc3c2)c(C(N)=O)c(OC)n1)C(N)=O [Example 16, (R)-2-(1-amino-1-oxobutan-2-ylamino)-4-methoxy-6-(quinolin-6-ylamino)pyrimidine-5-carboxamide]	10 to 100 nM
CC[C@@H](Nc1nc(Nc2ccc3c(ccc[n+]3[O-])c2)c(C(N)=O)c(OC)n1)C(N)=O [Example 17, (R)-6-(2-(1-amino-1-oxobutan-2-ylamino)-5-carbamoyl-6-methoxypyrimidin-4-ylamino)quinoline 1-oxide]	10 to 100 nM
CC(C)C[C@@H](Nc1nc(Nc2ccc(-n3cccn3)cc2)c(C(N)=O)c(=O)[nH]1)C(N)=O [Example 18]	1 to 10 nM
CC(C)[C@@H](Nc1nc(Nc2ccc(-n3cccn3)cc2)c(C(N)=O)c(=O)[nH]1)C(N)=O [Example 19]	1 to 10 nM
CC(C)[C@@H](Nc1nc(Nc2ccc3ncccc3c2)c(C(N)=O)c(=O)[nH]1)C(N)=O [Example 20, (R)-2-(1-amino-3-methyl-1-oxobutan-2-ylamino)-6-oxo-4-(quinolin-6-ylamino)-1,6-dihydropyrimidine-5-carboxamide]	1 to 10 nM
CC[C@@H](Nc1nc(Nc2ccc3ncccc3c2)c(C(N)=O)c(=O)[nH]1)C(N)=O [Example 21, (R)-2-(1-amino-1-oxobutan-2-ylamino)-6-oxo-4-(quinolin-6-ylamino)-1,6-dihydropyrimidine-5-carboxamide]	< 1 nM
CC(C)[C@H](CN)Nc1nc(Nc2cccc(-n3nccn3)c2)c(C(N)=O)c(=O)[nH]1 [Example 22, (R)-4-(3-(2H-1,2,3-triazol-2-yl)phenylamino)-2-(1-amino-3-methylbutan-2-ylamino)-6-oxo-1,6-dihydropyrimidine-5-carboxamide]	1 to 10 nM
CNCCNc1nc(Nc2cccc(-n3nccn3)c2)c(C(N)=O)c(=O)[nH]1 [Example 23, 4-(3-(2H-1,2,3-triazol-2-yl)phenylamino)-2-(2-(methylamino)ethylamino)-6-oxo-1,6-dihydropyrimidine-5-carboxamide]	10 to 100 nM
CC[C@@H](Nc1nc(Nc2ccc(-n3cccn3)cc2)c(C(N)=O)c(=O)[nH]1)C(N)=O [Example 24]	1 to 10 nM
CC(C)C[C@@H](Nc1nc(Nc2ccc3[nH]ncc3c2)c(C(N)=O)c(=O)[nH]1)C(N)=O [Example 25, (R)-4-(1H-indazol-5-ylamino)-2-(1-amino-4-methyl-1-oxopentan-2-ylamino)-6-oxo-1,6-dihydropyrimidine-5-carboxamide]	< 1 nM
CC(C)[C@@H](Nc1nc(Nc2ccc3[nH]ncc3c2)c(C(N)=O)c(=O)[nH]1)C(N)=O [Example 26, (R)-4-(1H-indazol-5-ylamino)-2-(1-amino-3-methyl-1-oxobutan-2-ylamino)-6-oxo-1,6-dihydropyrimidine-5-carboxamide]	< 1 nM
CC(C)C[C@@H](Nc1nc(Nc2cccc(-c3ncccn3)c2)c(C(N)=O)c(=O)[nH]1)C(N)=O [Example 27, (R)-2-(1-amino-4-methyl-1-oxopentan-2-ylamino)-6-oxo-4-(3-(pyrimidin-2-yl)phenylamino)-1,6-dihydropyrimidine-5-carboxamide]	1 to 10 nM

Reference: patent US20130317029A1 (PORTOLA PHARMACEUTICALS, INC., priority 2010, published 2013)
